{"source": "paper PMC9821308", "about": "“The Inhibitory Properties of a Novel, Selective LMTK3 Kinase Inhibitor” (International Journal of Molecular Sciences, 2023)", "key": {"[1]": {"biological_target": "T1, LMTK3 (lemur tyrosine kinase 3) (Homo sapiens, UniProt Q96Q04)", "T1 construct": "LMTK3cat (LMTK3 kinase domain)", "T1 sequence (Q96Q04 133-411 limits assumed)": "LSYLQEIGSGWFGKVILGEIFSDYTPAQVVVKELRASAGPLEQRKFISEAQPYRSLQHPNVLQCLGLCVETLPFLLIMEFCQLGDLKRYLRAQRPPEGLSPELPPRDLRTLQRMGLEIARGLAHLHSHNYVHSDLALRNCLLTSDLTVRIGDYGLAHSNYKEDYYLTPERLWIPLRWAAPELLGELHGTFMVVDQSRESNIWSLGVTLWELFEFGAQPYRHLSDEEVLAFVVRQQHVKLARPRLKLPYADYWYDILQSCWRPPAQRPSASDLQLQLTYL", "assay": "microscale thermophoresis; also […] kinase assay on HSP27 (IC50 approximately […])", "type": "binding"}, "MKNK1": {"biological_target": "MKNK1 (Homo sapiens, UniProt Q9BUB5)", "assay": "KINOMEscan active site-directed competition binding at […]; also radioactive filter binding assay at […]"}, "PDGFRA": {"biological_target": "PDGFRA (Homo sapiens, UniProt P16234)", "assay": "KINOMEscan active site-directed competition binding at […]; also radioactive filter binding assay at […]"}, "TRKA": {"biological_target": "T2, TRKA (Homo sapiens, UniProt P04629)", "T2 construct": "gene NTRK1", "assay": "KINOMEscan active site-directed competition binding at […] ([…]); also radioactive filter binding assay at […]"}, "PIM1": {"biological_target": "PIM1 (Homo sapiens, UniProt P11309)", "assay": "KINOMEscan active site-directed competition binding at […]; also radioactive filter binding assay at […]"}, "MKNK2": {"biological_target": "MKNK2 (Homo sapiens, UniProt Q9HBH9)", "assay": "KINOMEscan active site-directed competition binding at […]; also radioactive filter binding assay at […]"}}, "data": [{"smiles": "Clc1ccc(-c2cnc3sc(NCc4cccnc4)nn23)cc1", "note": "[C36]", "values": [{"measurement": "Kd", "setting": "[1]", "result": "1870 ± 200", "unit": "nM"}, {"measurement": "KINOMEscan active site-directed competition binding at 5 μM; also radioactive fi", "setting": "MKNK1", "result": "overlap of kinases targeted by C36 that have been identified via both assays (namely PIM1, TRKA, PDGFRA, MKNK1, MKNK2)"}, {"measurement": "KINOMEscan active site-directed competition binding at 5 μM; also radioactive fi", "setting": "PDGFRA", "result": "overlap of kinases targeted by C36 that have been identified via both assays (namely PIM1, TRKA, PDGFRA, MKNK1, MKNK2)"}, {"measurement": "KINOMEscan active site-directed competition binding at 5 μM (>90%); also radioac", "setting": "TRKA", "result": "overlap of kinases targeted by C36 that have been identified via both assays (namely PIM1, TRKA, PDGFRA, MKNK1, MKNK2)"}, {"measurement": "KINOMEscan active site-directed competition binding at 5 μM; also radioactive fi", "setting": "PIM1", "result": "overlap of kinases targeted by C36 that have been identified via both assays (namely PIM1, TRKA, PDGFRA, MKNK1, MKNK2)"}, {"measurement": "KINOMEscan active site-directed competition binding at 5 μM; also radioactive fi", "setting": "MKNK2", "result": "overlap of kinases targeted by C36 that have been identified via both assays (namely PIM1, TRKA, PDGFRA, MKNK1, MKNK2)"}]}]}
